# Measured values reported in EP0934300B1, “THE PREPARATION AND USE OF ORTHO-S[…] AS MATRIX METALLOPROTEINASE AND TACE INHIBITORS” (American Cyanamid Company, priority 1996, dated 1998).
# Legend:
# Assay type in all cases: biochemical
# [1] = molecular target: T1, MMP-1 (Homo sapiens, UniProt P03956); test: MMP-1 inhibition (thiopeptide or fluorescent peptide substrate assay); conditions: for inhibition at 1 µM: read-out: MMP-1 % inhibition, concentration 1 µM
# T1 sequence (P03956 100-469): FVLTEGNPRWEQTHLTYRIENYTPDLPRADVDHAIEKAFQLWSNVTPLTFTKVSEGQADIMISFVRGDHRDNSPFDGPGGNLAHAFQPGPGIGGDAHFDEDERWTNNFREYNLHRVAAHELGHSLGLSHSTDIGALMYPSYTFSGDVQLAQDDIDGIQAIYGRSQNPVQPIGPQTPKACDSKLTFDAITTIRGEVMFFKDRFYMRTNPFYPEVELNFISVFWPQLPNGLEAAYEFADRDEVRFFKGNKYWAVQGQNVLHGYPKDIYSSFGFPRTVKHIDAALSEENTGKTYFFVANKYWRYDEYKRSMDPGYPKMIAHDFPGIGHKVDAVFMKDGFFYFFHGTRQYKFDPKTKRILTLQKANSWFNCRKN
# Experimental: (§1) These assays are based on the cleavage of a thiopeptide substrates such as Ac-Pro-Leu-Gly(2mercapto-4 methyl-pentanoyl)-Leu-Gly-OEt by the matrix metalloproteinases MMP-1, MMP-13 (collagenases) or MMP-9 (gelatinase), which results in the release of a substrate product that reacts colorimetrically with DTNB (5,5'-dithiobis(2-nitro-benzoic acid)). The enzyme activity is measured by the rate of the color increase. The thiopeptide substrate is made up fresh as a 20 mM stock in 100% DMSO and the DTNB is dissolved in 100% DMSO as a 100 mM stock and stored in the dark at room temperature. Both the substrate and DTNB are diluted together to 1 mM with substrate buffer (50 mM HEPES pH 7.5, 5 mM CaCl2) before use. The stock of enzyme is diluted with assay buffer (50 mM HEPES, pH 7.5, 5 mM CaCl2, 0.02% Brij) to the desired final concentration.
# (§2) Alternatively, a fluorescent peptide substrate is used. In this assay, the peptide substrate contains a fluorescent group and a quenching group. Upon cleavage of the substrate by an MMP, the fluorescence that is generated is quantitated on the fluorescence plate reader. The assay is run in HCBC assay buffer (50mM HEPES, pH 7.0, 5 mM Ca^+2, 0.02% Brij, 0.5% Cysteine), with human recombinant MMP-1, MMP-9, or MMP-13. The substrate is dissolved in methanol and stored frozen in 1 mM aliquots. For the assay, substrate and enzymes are diluted in HCBC buffer to the desired concentrations. Compounds are added to the 96 well plate containing enzyme and the reaction is started by the addition of substrate. The reaction is read (excitation 340 nm, emission 444 nm) for 10 min. and the increase in fluorescence over time is plotted as a linear line.
# (§3) For either the thiopeptide or fluorescent peptide assays, the slope of the line is calculated and represents the reaction rate. The linearity of the reaction rate is confirmed (r^2 >0.85). The mean (x±sem) of the control rate is calculated and compared for statistical significance (p<0.05) with drug-treated rates using Dunnett's multiple comparison test.
# [2] = molecular target: MMP-9 (Homo sapiens, UniProt P14780); test: MMP-9 inhibition (thiopeptide or fluorescent peptide substrate assay); conditions: for inhibition at 10 µM: concentration 10 µM
# MMP-9, sequence (P14780 94-707): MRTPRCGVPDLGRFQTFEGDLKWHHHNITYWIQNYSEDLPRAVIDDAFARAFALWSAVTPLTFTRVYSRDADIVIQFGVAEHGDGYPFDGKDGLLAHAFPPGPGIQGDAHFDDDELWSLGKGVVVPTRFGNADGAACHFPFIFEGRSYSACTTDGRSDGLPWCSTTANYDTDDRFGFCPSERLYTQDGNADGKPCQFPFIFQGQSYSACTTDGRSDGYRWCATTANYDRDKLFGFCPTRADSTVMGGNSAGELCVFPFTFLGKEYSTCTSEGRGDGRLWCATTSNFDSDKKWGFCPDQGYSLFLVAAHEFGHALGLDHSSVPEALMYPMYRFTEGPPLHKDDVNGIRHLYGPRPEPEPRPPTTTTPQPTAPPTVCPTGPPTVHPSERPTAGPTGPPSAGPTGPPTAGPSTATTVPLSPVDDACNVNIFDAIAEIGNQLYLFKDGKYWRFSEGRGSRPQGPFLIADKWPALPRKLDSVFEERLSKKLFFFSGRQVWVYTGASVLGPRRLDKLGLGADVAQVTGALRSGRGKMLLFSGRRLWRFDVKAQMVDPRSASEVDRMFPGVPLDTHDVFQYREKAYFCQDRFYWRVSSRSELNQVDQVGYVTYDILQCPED
# Experimental: as §1, §2, §3
# [3] = molecular target: MMP-13 (Homo sapiens, UniProt P45452); test: MMP-13 inhibition (thiopeptide or fluorescent peptide substrate assay)
# Experimental: Alternatively, a fluorescent peptide substrate is used. In this assay, the peptide substrate contains a fluorescent group and a quenching group. Upon cleavage of the substrate by an MMP, the fluorescence that is generated is quantitated on the fluorescence plate reader. […] The substrate is dissolved in methanol and stored frozen in 1 mM aliquots. For the assay, substrate and enzymes are diluted in HCBC buffer to the desired concentrations. Compounds are added to the 96 well plate containing enzyme and the reaction is started by the addition of substrate.
# [4] = molecular target: T2, TACE (Homo sapiens, UniProt P78536); test: TACE inhibition (fluorescent peptidyl substrate assay)
# T2 construct: purchased Immunex
# T2 sequence (P78536 215-824): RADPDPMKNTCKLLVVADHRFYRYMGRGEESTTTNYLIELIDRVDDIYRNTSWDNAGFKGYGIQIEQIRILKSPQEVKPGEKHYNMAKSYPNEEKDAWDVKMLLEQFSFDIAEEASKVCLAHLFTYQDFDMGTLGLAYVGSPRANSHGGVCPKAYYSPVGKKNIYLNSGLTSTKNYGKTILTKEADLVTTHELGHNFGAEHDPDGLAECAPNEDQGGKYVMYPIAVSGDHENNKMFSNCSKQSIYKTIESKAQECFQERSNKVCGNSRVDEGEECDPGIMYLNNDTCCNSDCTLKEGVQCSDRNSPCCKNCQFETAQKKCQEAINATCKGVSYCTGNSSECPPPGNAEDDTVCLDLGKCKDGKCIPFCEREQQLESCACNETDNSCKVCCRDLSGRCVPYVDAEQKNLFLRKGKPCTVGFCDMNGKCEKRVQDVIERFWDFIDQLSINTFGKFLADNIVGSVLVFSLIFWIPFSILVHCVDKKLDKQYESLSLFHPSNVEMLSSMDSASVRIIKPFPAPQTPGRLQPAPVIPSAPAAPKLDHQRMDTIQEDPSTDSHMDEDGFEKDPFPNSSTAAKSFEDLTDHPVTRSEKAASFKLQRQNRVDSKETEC
# Experimental: Using 96-well black microtiter plates, each well receives a solution composed of 10 µL TACE (Immunex, final concentration 1µg/mL), 70µL Tris buffer, pH 7.4 containing 10% glycerol (final concentration 10 mM), and 10 µL of test compound solution in DMSO (final concentration 1µM, DMSO concentration <1%) and incubated for 10 minutes at room temperature.
# The reaction is read (excitation 340 nm, emission 420 nm) for 10 min. and the increase in fluorescence over time is plotted as a linear line. The slope of the line is calculated and represents the reaction rate.
compound,measurement,setting,value
"COc1ccc(S(=O)(=O)N(Cc2ccccc2)c2ccsc2C(=O)NO)cc1 [Example 13, 3-[Benzyl-(4-methoxy-benzenesulfonyl)-amino]-thiophene-2-carboxylic acid hydroxyamide]",inhibition at 1 µM,[1],19.3%
same,inhibition at 10 µM,[2]; read-out: MMP-9 % inhibition,57.3%
"COc1ccc(S(=O)(=O)N(Cc2ccccc2)c2cscc2C(=O)NO)cc1 [Example 14, 4-[Benzyl-(4-methoxy-benzenesulfonyl)-amino]-thiophene-3-carboxylic acid hydroxyamide]",inhibition at 1 µM,[1],40%
same,inhibition at 10 µM,[2]; read-out: MMP-9 % inhibition,66.8%
"COc1ccc(S(=O)(=O)N(Cc2ccccc2)c2c(C(=O)NO)cnn2C)cc1 [Example 15, 5-[Benzyl-(4-methoxy-benzenesulfonyl)-amino]-1-methyl-1H-pyrazole-4-carboxylic acid hydroxyamide]",inhibition at 1 µM,[1],22.1%
same,IC50,[2],0.93 µM
"COc1ccc(S(=O)(=O)N(Cc2ccccc2)c2c(C)csc2C(=O)NO)cc1 [Example 16, 3-[Benzyl-(4-methoxy-benzenesulfonyl)-amino]-4-methyl-thiophene-2-carboxylic acid hydroxyamide]",IC50,[2],0.104 µM
"COc1ccc(S(=O)(=O)N(Cc2ccccc2)c2c(C(=O)NO)csc2Br)cc1 [Example 20, 4-[Benzyl-(4-methoxy-benzenesulfonyl)-amino]-5-bromo-thiophene-3-carboxylic acid hydroxyamide]",IC50,[1],0.639 µM
same,IC50,[2],0.236 µM
same,IC50,[3],0.472 µM
"C#Cc1scc(C(=O)NO)c1N(Cc1ccccc1)S(=O)(=O)c1ccc(OC)cc1 [Example 23, 4-[Benzyl-(4-methoxy-benzenesulfonyl)-amino]-5-ethynyl-thiophene-3-carboxylic acid hydroxyamide]",inhibition at 1 µM,[1],48.9%
same,inhibition at 300 µM,"[2]; read-out: MMP-9 % inhibition, concentration 300 µM",38.4%
same,inhibition at 300 µM,[3]; read-out: MMP-13 % inhibition,35%
"COc1ccc(S(=O)(=O)N(Cc2cccnc2)c2c(C(=O)NO)csc2Br)cc1 [Example 26, 5-Bromo-4-[(4-methoxy-benzenesulfonyl)-pyridin-3-ylmethyl-amino]-thiophene-3-carboxylic acid hydroxyamide]",IC50,[1],1 µM
same,IC50,[2],0.07 µM
same,inhibition at 1 µM,[4]; concentration 1 µM,42%
"COc1ccc(S(=O)(=O)N(Cc2ccccc2)c2c(C(=O)NO)cc(OC)nc2OC)cc1 [Example 33, 3-[Benzyl-(4-methoxy-benzenesulfonyl)-amino]-N-hydroxy-2,6-dimethoxyisonicotinamide]",IC50,[2],0.015 µM
same,IC50,[3],0.047 µM
same,IC50,[4],0.294 µM
